Assay results from patent US20130303518A1, “Methods of Inhibiting the Catalytic Activity of a Protein Kinase and of Treating a Protein Kinase Related Disorder” (JIANGSU HANSOH PHARMACEUTICAL CO., LTD., priority 2007, published 2013).

Columns and labels:
[1] = tested on: SK—BR-3 (human breast cancer cells); assay: Inhibition of cancer cell proliferation assay (SRB); format: cell-based; conditions: SK-BR-3, 72 h, read-out: IC50 SK-BR-3
Description: (§1) The cancer cells include HUVEC (human umbilical vein endothelial cells), HT-29 (human colon cancer cells), Mo7e (human megakaryoblastic leukemia cell line), A431 (human epidermoid carcinoma cells), NCI—H526 (small-cell lung cancer cells), and SK—BR-3 (human breast cancer cells).
(§2) The following in vitro assay is to determine the activity of the tested compound for inhibiting the proliferation of the cancer cells mentioned above. The activity is represented by the IC50 value. The general procedures of the assay are given as follows: Cancer cells mentioned above were chosen and seeded to 96-well cell culture plate at a suitable concentration (e.g., 5000 cells/mL medium). […] Then, the cell culture medium was replaced by fresh one with tested compound added in it at serial concentrations (general 6 to 7 concentrations). Then the cells were put back to the incubator and cultured continuously. 72 hours later, the activity of the tested compound for inhibiting the cell proliferation was determined by using Sulforhodamine B (SRB) method. IC50 value on tested cells is calculated by the data of inhibition rates of serial concentrations of the tested compound.

[2] = tested on: A431 (human epidermoid carcinoma cells); assay: as above; format: cell-based; conditions: A-431, 72 h, read-out: IC50 A431
Description: as §1, §2

[3] = tested on: NCI—H526 (small-cell lung cancer cells); assay: as above; format: cell-based; conditions: Homo sapiens, NCI-H526, 72 h, read-out: IC50 NCI-H526
Description: as §1, §2

Bel-7402(liver cancer) = assay: Anticancer pharmacodynamic assay in vivo, xenograft; parameters: species or system nude mice; conditions: for T/C (%): relative tumor volume (%): Bel-7402 xenograft
Description: The test method and steps are the same with those disclosed in “PHARMACODYNAMIC ASSAYS IN VIVO” of the present invention. The therapeutic effects of the compound of Example 53 against xenografts of colon cancer, non-small cell lung cancer, liver cancer, melanoma, renal cancer in nude mice are estimated.
Bel-7402(liver cancer): Cell Bank, Chinese Academy of Sciences, TCHu10;
Nude mice were hypodermic inoculated HT-29 human colon cancer cell. After tumors grew to 100-300 mm^3, mice were randomly divided into teams (d0). The volume of tumors and weigh of the mice were measured for 2-3 times per week. The calculation formula of the volume of tumor (V) is: V=½×a×b^2, a: length of tumor, b: width of tumor.

Flt3 = biological target: T1, Flt3 (Homo sapiens, UniProt P36888); assay: Inhibition of receptor tyrosine kinases activity assay; format: biochemical
T1 construct: purchased invitrogen PV3182
T1 sequence (P36888 27-993): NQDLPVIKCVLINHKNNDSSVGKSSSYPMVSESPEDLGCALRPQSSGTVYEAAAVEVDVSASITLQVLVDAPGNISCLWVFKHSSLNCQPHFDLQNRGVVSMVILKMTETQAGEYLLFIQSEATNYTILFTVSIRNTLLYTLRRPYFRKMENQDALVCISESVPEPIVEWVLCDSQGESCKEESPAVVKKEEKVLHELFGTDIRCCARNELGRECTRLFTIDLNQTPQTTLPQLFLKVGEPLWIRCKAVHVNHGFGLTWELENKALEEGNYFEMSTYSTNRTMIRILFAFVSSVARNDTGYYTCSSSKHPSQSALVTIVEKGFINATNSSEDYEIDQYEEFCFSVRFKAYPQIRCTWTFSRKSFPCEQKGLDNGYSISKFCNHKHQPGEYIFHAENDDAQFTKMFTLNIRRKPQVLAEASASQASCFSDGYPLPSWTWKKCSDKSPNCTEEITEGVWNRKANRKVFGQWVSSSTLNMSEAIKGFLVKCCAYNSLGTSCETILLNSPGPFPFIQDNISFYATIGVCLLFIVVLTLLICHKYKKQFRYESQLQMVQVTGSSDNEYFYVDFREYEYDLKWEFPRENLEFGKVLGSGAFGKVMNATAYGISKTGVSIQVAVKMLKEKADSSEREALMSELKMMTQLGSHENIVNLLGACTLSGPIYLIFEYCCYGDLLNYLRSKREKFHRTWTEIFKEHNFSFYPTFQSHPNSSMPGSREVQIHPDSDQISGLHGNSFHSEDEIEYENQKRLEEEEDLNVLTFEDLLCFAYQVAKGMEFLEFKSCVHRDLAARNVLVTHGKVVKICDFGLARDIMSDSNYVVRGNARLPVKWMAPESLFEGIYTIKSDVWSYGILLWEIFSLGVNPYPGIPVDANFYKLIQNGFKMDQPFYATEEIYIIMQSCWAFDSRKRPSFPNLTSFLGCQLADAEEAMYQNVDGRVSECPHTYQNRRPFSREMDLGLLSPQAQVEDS

## Cc1c(/C=C2\C(=O)Nc3ccc(F)cc32)[nH]c2c1C(=O)N(C[C@H](O)CN1CCOCC1)CCC2 [Example 53, (R,Z)-2-(5-Fluoro-2-oxo-1,2-dihydro-indol-3-ylidenemethyl)-5-(2-hydroxy-3-morpholin-4-yl-propyl)-3-methyl-5,6,7,8-tetrahydro-1H-pyrrolo[3,2-c]azepin-4-one]
[1]
  IC50: 7.8 ± 1.5 µM
[2]
  IC50: 2 ± 0.5 µM
[3]
  IC50: 8.3 ± 0.3 µM
Bel-7402(liver cancer); Bel-7402 xenograft in nude mice
  anticancer activity against xenograft (in words): obvious anticancer activity
Bel-7402(liver cancer); 15 mg/kg p.o d0-17
  T/C (%): relative tumor volume (%): 39.8%
Bel-7402(liver cancer); 30 mg/kg p.o d0-17
  T/C (%): relative tumor volume (%): 29.2%
Bel-7402(liver cancer); 60 mg/kg p.o d0-17
  T/C (%): relative tumor volume (%): 13.3%
Flt3; Flt3
  inhibition of kinase activity (in words): obvious activity
Flt3; mean ± SD, 20 μM ATP, 25° C., 45 minutes
  IC50: 0.0193 ± 0.0031 µM
